Source: ChEMBL document CHEMBL1150522, “Preparation and antifungal activity of fusacandin analogs: C-6 sidechain esters” (1996)
Values after ≈ are worked out from the molar mass of the structure shown.

Assays:
Type in all cases: functional
[1] = system: Candida albicans; assay: Minimum inhibitory concentration against Candida albicans (CCH 442) in the absence of serum.
[2] = system: Candida albicans; assay: Minimum inhibitory concentration against Candida albicans (ATCC 62376) in the presence of serum
[3] = system: Candida albicans; assay: Minimum inhibitory concentration against Candida albicans (ATCC 10231) in the absence of serum.
[4] = system: Candida albicans; assay: Minimum inhibitory concentration against Candida albicans (ATCC 10231) in the presence of serum
[5] = system: Candida albicans; assay: Minimum inhibitory concentration against Candida albicans (ATCC 38247) in the presence of serum
[6] = system: Candida albicans; assay: Minimum inhibitory concentration against Candida albicans (CCH 442) in the presence of serum
[7] = system: Candida albicans; assay: Minimum inhibitory concentration against Candida albicans (ATCC 38247) in the absence of serum.
[8] = system: Candida albicans; assay: Minimum inhibitory concentration against Candida albicans (579a) in the absence of serum.
[9] = system: Candida albicans; assay: Minimum inhibitory concentration against Candida albicans (579a) in the presence of serum
[10] = system: Candida albicans; assay: Minimum inhibitory concentration against Candida albicans (ATCC 62376) in the absence of serum.

| MIC [1] [µg/mL] | MIC [2] [µg/mL] | MIC [3] [µg/mL] | MIC [4] [µg/mL] | MIC [5] [µg/mL] | MIC [6] [µg/mL] | MIC [7] [µg/mL] | MIC [8] [µg/mL] | MIC [9] [µg/mL] | MIC [10] [µg/mL] | SMILES |
| --- | --- | --- | --- | --- | --- | --- | --- | --- | --- | --- |
| 6.25 (≈ 5.77 µM) | 0.78 | 12.5 (≈ 11.5 µM) | 0.78 | 3.12 | 0.78 | 25 (≈ 23.1 µM) | 12.5 (≈ 11.5 µM) | 1.56 | 12.5 (≈ 11.5 µM) | CCCCC/C=C/C=C/[C@@H](O)C/C=C/C=C/C(=O)O[C@@H]1[C@@H](O)[C@H](c2c(O)cc(O)cc2CO)O[C@H](CO)[C@H]1O[C@@H]1O[C@H](COC(=O)c2ccc(-c3ccc(OC)cc3)cc2)[C@H](O)[C@H](O)[C@H]1O[C@@H]1O[C@H](CO)[C@H](O)[C@H](O)[C@H]1O |
| > 100 | 12.5 | > 100 | 12.5 | 6.25 | 12.5 | > 100 | > 100 | 6.25 | > 100 | CCCCC/C=C/C=C/[C@@H](O)C/C=C/C=C/C(=O)O[C@@H]1[C@@H](O)[C@H](c2c(O)cc(O)cc2CO)O[C@H](CO)[C@H]1O[C@@H]1O[C@H](COC(=O)c2ccccc2)[C@H](O)[C@H](O)[C@H]1O[C@@H]1O[C@H](CO)[C@H](O)[C@H](O)[C@H]1O |
| 100 (≈ 92.3 µM) | 3.12 | 50 (≈ 46.2 µM) | 1.56 | 1.56 | 1.56 | 100 (≈ 92.3 µM) | 50 (≈ 46.2 µM) | 0.78 | 25 (≈ 23.1 µM) | CCCCC/C=C/C=C/[C@@H](O)C/C=C/C=C/C(=O)O[C@@H]1[C@@H](O)[C@H](c2c(O)cc(O)cc2CO)O[C@H](CO)[C@H]1O[C@@H]1O[C@H](COC(=O)c2cccc(-c3ccc(OC)cc3)c2)[C@H](O)[C@H](O)[C@H]1O[C@@H]1O[C@H](CO)[C@H](O)[C@H](O)[C@H]1O |
| 12.5 (≈ 11.9 µM) | 0.78 | 12.5 (≈ 11.9 µM) | 0.78 | 1.56 | 0.78 | 25 (≈ 23.7 µM) | 12.5 (≈ 11.9 µM) | 0.78 | 12.5 (≈ 11.9 µM) | CCCCC/C=C/C=C/[C@@H](O)C/C=C/C=C/C(=O)O[C@@H]1[C@@H](O)[C@H](c2c(O)cc(O)cc2CO)O[C@H](CO)[C@H]1O[C@@H]1O[C@H](COC(=O)c2ccc(-c3ccccc3)cc2)[C@H](O)[C@H](O)[C@H]1O[C@@H]1O[C@H](CO)[C@H](O)[C@H](O)[C@H]1O |
| > 100 | 1.56 | > 100 | 3.12 | 1.56 | 3.12 | > 100 | > 100 | 0.78 | > 100 | CCCCC/C=C/C=C/[C@@H](O)C/C=C/C=C/C(=O)O[C@@H]1[C@@H](O)[C@H](c2c(O)cc(O)cc2CO)O[C@H](CO)[C@H]1O[C@@H]1O[C@H](COC(=O)c2ccc(CCCC)cc2)[C@H](O)[C@H](O)[C@H]1O[C@@H]1O[C@H](CO)[C@H](O)[C@H](O)[C@H]1O |
| 12.5 (≈ 11.1 µM) | 0.78 | 12.5 (≈ 11.1 µM) | 1.56 | 3.12 | 0.78 | 25 (≈ 22.1 µM) | 12.5 (≈ 11.1 µM) | 0.78 | 12.5 (≈ 11.1 µM) | CCCCC/C=C/C=C/[C@@H](O)C/C=C/C=C/C(=O)O[C@@H]1[C@@H](O)[C@H](c2c(O)cc(O)cc2CO)O[C@H](CO)[C@H]1O[C@@H]1O[C@H](COC(=O)c2ccc(-c3ccc(-c4ccccc4)cc3)cc2)[C@H](O)[C@H](O)[C@H]1O[C@@H]1O[C@H](CO)[C@H](O)[C@H](O)[C@H]1O |
| 6.25 (≈ 5.62 µM) | 0.78 | 12.5 (≈ 11.2 µM) | 1.56 | 0.78 | 0.78 | 25 (≈ 22.5 µM) | 12.5 (≈ 11.2 µM) | 0.78 | 12.5 (≈ 11.2 µM) | CCCCC/C=C/C=C/[C@@H](O)C/C=C/C=C/C(=O)O[C@@H]1[C@@H](O)[C@H](c2c(O)cc(O)cc2CO)O[C@H](CO)[C@H]1O[C@@H]1O[C@H](COC(=O)c2ccc(-c3ccc(OC(C)C)cc3)cc2)[C@H](O)[C@H](O)[C@H]1O[C@@H]1O[C@H](CO)[C@H](O)[C@H](O)[C@H]1O |
| > 100 | > 100 | > 100 | > 100 | > 100 | > 100 | > 100 | > 100 | > 100 | > 100 | CCCCC/C=C/C=C/[C@@H](O)C/C=C/C=C/C(=O)O[C@@H]1[C@@H](O)[C@H](c2c(O)cc(O)cc2CO)O[C@H](CO)[C@H]1O[C@@H]1O[C@H](COC(C)=O)[C@H](O)[C@H](O)[C@H]1O[C@@H]1O[C@H](CO)[C@H](O)[C@H](O)[C@H]1O |
| 100 (≈ 92.8 µM) | 3.12 | 50 (≈ 46.4 µM) | 3.12 | 6.25 | 3.12 | 100 (≈ 92.8 µM) | 50 (≈ 46.4 µM) | 3.12 | 100 (≈ 92.8 µM) | CCCCC/C=C/C=C/[C@@H](O)C/C=C/C=C/C(=O)O[C@@H]1[C@@H](O)[C@H](c2c(O)cc(O)cc2CO)O[C@H](CO)[C@H]1O[C@@H]1O[C@H](COC(=O)c2cc3ccccc3c3ccccc23)[C@H](O)[C@H](O)[C@H]1O[C@@H]1O[C@H](CO)[C@H](O)[C@H](O)[C@H]1O |
| 50 (≈ 48.7 µM) | 6.25 | 50 (≈ 48.7 µM) | 3.12 | 1.56 | 3.12 | 50 (≈ 48.7 µM) | 50 (≈ 48.7 µM) | 3.12 | 100 (≈ 97.4 µM) | CCCCC/C=C/C=C/[C@@H](O)C/C=C/C=C/C(=O)O[C@@H]1[C@@H](O)[C@H](c2c(O)cc(O)cc2CO)O[C@H](CO)[C@H]1O[C@@H]1O[C@H](COC(=O)c2cccc3ccccc23)[C@H](O)[C@H](O)[C@H]1O[C@@H]1O[C@H](CO)[C@H](O)[C@H](O)[C@H]1O |
| 12.5 (≈ 11.6 µM) | 0.39 | 25 (≈ 23.1 µM) | 0.78 | 0.78 | 0.78 | 25 (≈ 23.1 µM) | 25 (≈ 23.1 µM) | 0.2 | 25 (≈ 23.1 µM) | CCCCC/C=C/C=C/[C@@H](O)C/C=C/C=C/C(=O)O[C@@H]1[C@@H](O)[C@H](c2c(O)cc(O)cc2CO)O[C@H](CO)[C@H]1O[C@@H]1O[C@H](COC(=O)c2ccc(-c3ccc(CC)cc3)cc2)[C@H](O)[C@H](O)[C@H]1O[C@@H]1O[C@H](CO)[C@H](O)[C@H](O)[C@H]1O |
| 12.5 (≈ 10.8 µM) | 1.56 | 50 (≈ 43.1 µM) | 1.56 | 3.12 | 3.12 | 25 (≈ 21.6 µM) | 50 (≈ 43.1 µM) | 0.78 | 25 (≈ 21.6 µM) | CCCCC/C=C/C=C/[C@@H](O)C/C=C/C=C/C(=O)O[C@@H]1[C@@H](O)[C@H](c2c(O)cc(O)cc2CO)O[C@H](CO)[C@H]1O[C@@H]1O[C@H](COC(=O)c2ccc(-c3ccc(OCc4ccccc4)cc3)cc2)[C@H](O)[C@H](O)[C@H]1O[C@@H]1O[C@H](CO)[C@H](O)[C@H](O)[C@H]1O |
| > 100 | 12.5 | > 100 | 12.5 | 12.5 | 6.25 | > 100 | > 100 | 12.5 | > 100 | CCCCC/C=C/C=C/[C@@H](O)C/C=C/C=C/C(=O)O[C@@H]1[C@@H](O)[C@H](c2c(O)cc(O)cc2CO)O[C@H](CO)[C@H]1O[C@@H]1O[C@H](COC(=O)CCCCCCCCC)[C@H](O)[C@H](O)[C@H]1O[C@@H]1O[C@H](CO)[C@H](O)[C@H](O)[C@H]1O |
